Experimental data published in patent US20040171566A1, “Antisense modulation of p38 mitogen activated protein kinase expression” (priority 1999, published 2004).
In the oligonucleotide strings, read from the 5' end, every base follows the letter of its sugar. An asterisk marks phosphorothioate; unmarked linkages are phosphodiester. Other units and linkages are bracketed, terminal groups are in braces. A string of capitals states the bases alone. e = 2'-O-(2-methoxyethyl) (MOE); [5mC] = 5-methylcytosine; d = 2'-deoxy (DNA)

Key:
[1] = test system: human p38β mRNA; experiment: Human p38β mRNA expression in T-24 cells; details: relative to control oligonucleotide = 100%
[2] = test system: human p38α mRNA; experiment: Inhibition of human p38α mRNA expression in Jurkat cells, Northern blot; format: cell-based
Method: The human Jurkat T-cell line (American Type Culture Collection, Manassas, Va.) was maintained in RPMI 1640 growth media supplemented with 10% fetal bovine serum (FBS; Hyclone, Logan, Utah). HUVEC cells (Clonetics, San Diego, Calif.) were cultivated in endothelial basal media supplemented with 10% FBS (Hyclone, Logan, Utah).
Jurkat cells were grown to approximately 75% confluency and resuspended in culture media at a density of 1×10^7 cells/ml. A total of 3.6×10^6 cells were employed for each treatment by combining 360 μl of cell suspension with oligonucleotide at the indicated concentrations to reach a final volume of 400 μl. Cells were then transferred to an electroporation cuvette and electroporated using an Electrocell Manipulator 600 instrument (Biotechnologies and Experimental Research, Inc.) employing 150 V, 1000 μF, at 13 Ω. Electroporated cells were then transferred to conical tubes containing 5 ml of culture media, mixed by inversion, and plated onto 10 cm culture dishes.
Total mRNA was isolated using the RNEASY7 Mini Kit (Qiagen, Valencia, Calif.; similar kits from other manufacturers may also be used), separated on a 1% agarose gel, transferred to HYBOND™-N+ membrane (Amersham Pharmacia Biotech, Piscataway, N.J.), a positively charged nylon membrane, and probed. p38 MAPK probes were made using the Prime-A-Gene7 kit (Promega Corporation, Madison, Wis.), a random primer labeling kit, using mouse p38α or p38β cDNA as a template. A glyceraldehyde 3-phosphate dehydrogenase (G3PDH) probe was purchased from Clontech (Palo Alto, Calif.), Catalog Number 9805-1. The fragments were purified from low-melting temperature agarose, as described in Maniatis, T., et al., Molecular Cloning: A Laboratory Manual, 1989. The G3PDH probe was labeled with REDIVUE™ ^32P-dCTP (Amersham Pharmacia Biotech, Piscataway, N.J.) and Strip-EZ labelling kit (Ambion, Austin, Tex.). mRNA was quantitated by a PhosphoImager (Molecular Dynamics, Sunnyvale, Calif.).
Jurkat cells were grown and treated as described above except the concentration of oligonucleotide was varied as indicated in Table 3. […] Maximum inhibition was approximately 70% with 16500 (SEQ ID NO 17).

[3] = test system: human p38α mRNA; experiment: Human p38α mRNA expression in T-24 cells; details: initial screen of human p38α oligonucleotides
[4] = Jurkat cells electroporated with 10 μM oligonucleotide, Northern blot

## CGGACCAGATATCCACTGTT (antisense e[5mC]eGeGeAe[5mC]*d[5mC]*dA*dG*dA*dT*dA*dT*d[5mC]*d[5mC]*dA*e[5mC]eTeGeTeT) [ISIS 107877]
[1]; dose 50 nM
  % p38β mRNA Expression: 50%
[1]; dose 100 nM
  % p38β mRNA Expression: 34%
[1]; dose 200 nM
  % p38β mRNA Expression: 22%

## CTGCCGGTAGAACGTGGGCC (antisense e[5mC]*eT*eG*e[5mC]*e[5mC]*eG*dG*dT*dA*dG*dA*dA*dC*dG*eT*eG*eG*eG*e[5mC]*e[5mC]) [ISIS 16495]
[2]; [4]
  % mRNA EXPRESSION: 72%
  % mRNA Inhibition: 28%

## CTTCCACCATGGAGGAAATC (antisense e[5mC]*eT*eT*e[5mC]*e[5mC]*eA*dC*dC*dA*dT*dG*dG*dA*dG*eG*eA*eA*eA*eT*e[5mC]) [ISIS 16504]
[2]; [4]
  % mRNA EXPRESSION: 72%
  % mRNA Inhibition: 28%

## GAAGTGGGATCAACAGAACA (eG*eA*eA*eG*eT*eG*dG*dG*dA*dT*dC*dA*dA*dC*eA*eG*eA*eA*e[5mC]*eA; antisense) [ISIS 16501]
[2]; [4]
  % mRNA EXPRESSION: 77%
  % mRNA Inhibition: 23%

## GGTCTCGGGCGACCTCTCCT (antisense eG*eG*eT*e[5mC]*eT*e[5mC]*dG*dG*dG*dC*dG*dA*dC*dC*eT*e[5mC]*eT*e[5mC]*e[5mC]*eT) [ISIS 16491]
[2]; [4]
  % mRNA EXPRESSION: 148%

## GTAAGCTTCTGACATTTCAC (antisense eG*eT*eA*eA*eG*e[5mC]*dT*dT*dC*dT*dG*dA*dC*dA*eT*eT*eT*e[5mC]*eA*e[5mC]) [ISIS 16496]
[2]; [4]
  % mRNA EXPRESSION: 61%
[2]; Jurkat cells, dose 2.5 nM
  % mRNA EXPRESSION: 94%
  % mRNA Inhibition: 6%
[2]; Jurkat cells, dose 5 nM
  % mRNA EXPRESSION: 74%
  % mRNA Inhibition: 26%
[2]; Jurkat cells, dose 10 nM
  % mRNA EXPRESSION: 47%
  % mRNA Inhibition: 53%
[2]; Jurkat cells, dose 20 nM
  % mRNA EXPRESSION: 41%
  % mRNA Inhibition: 59%

## GTGGAGGCCAGTCCCCGGGA [ISIS 16487]
[2]; [4]
  % mRNA EXPRESSION: 171%

## TAAGGAGGTCCCTGCTTTCA (antisense eT*eA*eA*eG*eG*eA*dG*dG*dT*dC*dC*dC*dT*dG*e[5mC]*eT*eT*eT*e[5mC]*eA) [ISIS 16499]
[2]; [4]
  % mRNA EXPRESSION: 74%
  % mRNA Inhibition: 26%

## TATGGTCTGTACCAGGAAAC (chimeric deoxy gapped, phosphorothioate, further chemistry not given here) [ISIS 100870]
[3]
  % P38α mRNA EXPRESSION: 51%

## TCCTGAGACATTTTCCAGCG (antisense eT*e[5mC]*e[5mC]*eT*eG*eA*dG*dA*dC*dA*dT*dT*dT*dT*e[5mC]*e[5mC]*eA*eG*e[5mC]*eG) [ISIS 16494]
[2]; [4]
  % mRNA EXPRESSION: 72%
  % mRNA Inhibition: 28%

## TGAAAAGGCCTTCCCCTCAC (antisense eT*eG*eA*eA*eA*eA*dG*dG*dC*dC*dT*dT*dC*dC*e[5mC]*e[5mC]*eT*e[5mC]*eA*e[5mC]) [ISIS 16502]
[2]; [4]
  % mRNA EXPRESSION: 79%
  % mRNA Inhibition: 21%

## TGGCAGCAAAGTGCTGCTGG (eT*eG*eG*e[5mC]*eA*eG*dC*dA*dA*dA*dG*dT*dG*dC*eT*eG*e[5mC]*eT*eG*eG; antisense) [ISIS 16488]
[2]; [4]
  % mRNA EXPRESSION: 157%

## TGTGCCGAATCTCGGCCTCT (antisense eT*eG*eT*eG*e[5mC]*e[5mC]*dG*dA*dA*dT*dC*dT*dC*dG*eG*e[5mC]*e[5mC]*eT*e[5mC]*eT) [ISIS 16490]
[2]; [4]
  % mRNA EXPRESSION: 152%
  % mRNA Inhibition: no inhibition
[2]; Jurkat cells, dose 2.5 nM
  % mRNA EXPRESSION: 112%
[2]; Jurkat cells, dose 5 nM
  % mRNA EXPRESSION: 109%
[2]; Jurkat cells, dose 10 nM
  % mRNA EXPRESSION: 104%
[2]; Jurkat cells, dose 20 nM
  % mRNA EXPRESSION: 97%
  % mRNA Inhibition: 3%

## TTTAGGTCCCTGTGAATTAT (eT*eT*eT*eA*eG*eG*dT*dC*dC*dC*dT*dG*dT*dG*eA*eA*eT*eT*eA*eT; antisense) [ISIS 16497]
[2]; [4]
  % mRNA EXPRESSION: 104%
